What was measured:
VCAM-1 = assay: In Vitro VCAM-1 Assay (TNF-α stimulated endothelial cells, cell-surface ELISA); format: cell-based; conditions: Homo sapiens, Endothelial cell, 16 h, primary human aortic (HAEC) or pulmonary (HPAEC) endothelial cells, TNF-α 1 ng/ml, approximately 16 hours, ELISA OD 450 nm
Method: Cell Culture and compound dosing: Cultured primary human aortic (HAEC) or pulmonary (HPAEC) endothelial cells were obtained from Clonetics, Inc., and were used below passage 9. Cells were seeded in 96 well plates such that they would reach 90–95% confluency by the following day. On the following day the cells were stimulated with TNF-α (1 ng/ml) in the presence or absence of compounds dissolved in DMSO such that the final concentration of DMSO is 0.25% or less. To establish a dose curve for each compound, four concentrations in 2- to 5-fold increments were used. Cells were exposed to TNF-α and compounds for approximately 16 hours. The next day the cells were examined under microscope to score for visual signs of toxicity or cell stress.
Following 16 hr exposure to TNF-α and compound the media was discarded and the cells were washed once with Hanks Balanced Salt Solution (HBSS)/Phosphate buffered saline (PBS) (1:1). Primary antibodies against VCAM-1 (0.25 μg/ml in HBSS/PBS+5% FBS) were added and incubated for 30–60 minutes at 37° C. Cells were washed with HBSS/PBS three times, and secondary antibody Horse Radish Peroxidase (HRP)-conjugated goat anti-mouse IgG (1:500 in HBSS/PBS+5% FBS) were added and incubated for 30 minutes at 37° C. Cells were washed with HBSS/PBS four time and TMB substrate were added and incubated at room temperature in the dark until there was adequate development of blue color. The length of time of incubation was typically 5–15 minutes. 2N sulfuric acid was added to stop the color development and the data was collected by reading the absorbance on a BioRad ELISA plate reader at OD 450 nm. The results are expressed as IC50 values (the concentration (micromolar) of compound required to inhibit 50% of the maximal response of the control sample stimulated by TNF-α only).

IC50 (VCAM-1) [µM] | melting point [°C] | SMILES
< 5 | 167 to 168 | COc1cc(OC)c(-c2cccs2)cc1/C=C/C(=O)c1ccc(S(=O)(=O)NCc2cccnc2)cc1 [Example 19, 4-[3E-(2,4-Dimethoxy-5-thien-2-ylphenyl)acryloyl]-N-pyridin-3-ylmethylbenzenesulfonamide]
< 5 | 171 to 172 | COc1cc(OC)c(-c2cccs2)cc1/C=C/C(=O)c1ccc(S(=O)(=O)NCCN2CCOCC2)cc1 [Example 20, 4-[3E-(2,4-Dimethoxy-5-thien-2-ylphenyl)acryloyl]-N-(2-morpholin-4-yl-ethyl)benzenesulfonamide]
< 5 | 142 to 145 | COc1cc(OC)c(-c2cccs2)cc1/C=C/C(=O)c1ccc(S(=O)(=O)Nc2cc[nH]n2)cc1 [Example 6, 4-[3E-(2,4-Dimethoxy-5-thien-2-ylphenyl)acryloyl]-N-(1H-pyrazol-3-yl)benzenesulfonamide]

Reference: patent publication US7173129B2, “Sulfonamide-substituted chalcone derivatives and their use to treat diseases” (Athero Genics, Inc., priority 2003, dated 2007)
